Test results published in patent publication US20150328249A1, “MODULATION OF MYOFIBER REPAIR BY ANTI-MYOSTATIN STRATEGIES AND/OR PPAR GAMMA LIGANDS, ALONE OR IN COMBINATION WITH STEM CELLS, FOR THE THERAPY OF CRITICAL LIMB ISCHEMIA AND OTHER ISCHEMIC PROCESSES AFFECTING THE SKELETAL MUSCLE” (LOS ANGELES BIOMEDICAL RESEARCH INSTITUTE AT HARBOR-UCLA …, priority 2012, published 2015).

Legend:
[1] = system: db/db diabetic mice; assay: CLI induced by ULFA in db/db diabetic mice, treated with MDSC and/or molsidomine; format: in vivo; details: 3 weeks
Method: CLI was induced by ULFA in db/db diabetic mice and treated as follows (n=8/group), for studying the effect of a long-acting NO donor, molsidomine: 1) Untreated (UT): vehicle; 2) MDSC (SC): MDSC into gastrocnemius; 3) MDSC-molsidomine (SC+Mol): as #2, and IP molsidomine (5 mg/kg/day); 4) Molsidomine (Mol) as in #3, no MDSC. Non-diabetic non-ULFA untreated (ND-UT) mice were controls.
At 3 weeks after initiating treatment, mortality, leg preservation, and limb loss/motion/ischemia were determined. Stem cell, myogenic, angiogenic, lipofibrosis, and neurogenesis markers were assayed in muscle tissue by quantitative histochemistry and immunohisto-chemistry and western blot.

[2] = system: rat models for insulin resistance and T2DM; assay: Low oral dose pioglitazone in rat models for insulin resistance and T2DM; format: in vivo

Row | SMILES | follistatin expression in the skeletal muscle [1] | stem cell number, expression of stem cell marker nuclear Oct 4a in the skeletal muscle ([1]; gastrocnemius of ischemic leg, quantitative western blot) | number of central nuclei (early stage of myofiber repair) ([1]; hematoxylin-eosin histochemistry) | fat infiltration in the skeletal muscle (Oil Red O) ([1]; quantitative histochemistry) | fibrosis, collagen deposition in the skeletal muscle (Masson trichrome) ([1]; quantitative histochemistry) | vascular endothelial growth factor (VEGF) expression in the skeletal muscle (angiogenesis) ([1]; quantitative western blot) | vascular endothelium, CD-31 expression in the skeletal muscle ([1]; quantitative western blot) | vascular endothelium, von Willebrandt factor expression in the skeletal muscle ([1]; quantitative western blot) | vascular smooth muscle marker calponin in the skeletal muscle ([1]; quantitative western blot) | side effects ([2]; glycemia-normalizing dose of 12 mg/kg/day) | body weight ([2]; low oral dose 0.6 mg/kg/day) | glycemia ([2]; low oral dose 0.6 mg/kg/day) [mg/dL]
1 | CCOC(=O)[N-]c1cn(N2CCOCC2)n[o+]1 [molsidomine] | decrease | reduced this effect | slightly inhibitory | did not reduce | did not exert this noxious effect | also angiogenic | increase | increase | abolished the effect | – | – | –
2 | CCc1ccc(CCOc2ccc(CC3SC(=O)NC3=O)cc2)nc1 (stereo not drawn) [pioglitazone] | – | – | – | – | – | – | – | – | – | obesity and fat infiltration in the tissues | does not exert glycemic control or increase body weight | 250 to 300
